Legend:
K562 = assay: In vitro effect on human leukemia K562 cell proliferation; format: functional, cell-based
Nucleic Acid = assay: Inhibition of human estrogen receptor(ER) polymerase-chain reaction product; format: functional

COC(=O)CCOc1cc2c(cc1OC)C(=O)N1CCC[C@H]1C=N2.Cn1cc(NC(=O)c2cc(NC(=O)c3cc(NC=O)cn3C)cn2C)cc1C(=O)NCCC(=N)N
IC50 (K562): 1 µM | IC50 (Nucleic Acid): 50 µM

COc1cc2c(cc1OCCC(=O)Nc1cc(C(=O)Nc3cc(C(=O)Nc4cc(C(=O)NCCC(=N)N)n(C)c4)n(C)c3)n(C)c1)N=C[C@@H]1CCCN1C2=O
IC50 (K562): 0.2 µM | IC50 (Nucleic Acid): 8 µM

COC(=O)CCOc1cc2c(cc1OC)C(=O)N1CCC[C@H]1C=N2
IC50 (K562): 1 µM | IC50 (Nucleic Acid): > 300 µM

Cn1cc(NC(=O)c2cc(NC(=O)c3cc(NC=O)cn3C)cn2C)cc1C(=O)NCCC(=N)N [STALLIMYCIN]
IC50 (K562): 5 µM | IC50 (Nucleic Acid): 50 µM
